# Experimental data published in US20140187559A1, “INHIBITORS OF THE FIBROBLAST GROWTH FACTOR RECEPTOR” (BLUEPRINT MEDICINES CORPORATION, priority 2012, published 2014).
# Columns and labels:
# [1] = molecular target: T1, wild type FGFR-4 (Homo sapiens, UniProt P22455); assay: FGFR-4 wild type assay at Km (Caliper mobility shift); format: biochemical; details: for Ratio FGFR1/FGFR4: [IC50 for FGFR1]/[IC50 for FGFR4]; for IC50: 400 uM ATP, 25 C, 90 minutes, read-out: FGFR4 IC50
# T1 construct: purchased Carna Biosciences, Inc
# T1 sequence (P22455 22-802): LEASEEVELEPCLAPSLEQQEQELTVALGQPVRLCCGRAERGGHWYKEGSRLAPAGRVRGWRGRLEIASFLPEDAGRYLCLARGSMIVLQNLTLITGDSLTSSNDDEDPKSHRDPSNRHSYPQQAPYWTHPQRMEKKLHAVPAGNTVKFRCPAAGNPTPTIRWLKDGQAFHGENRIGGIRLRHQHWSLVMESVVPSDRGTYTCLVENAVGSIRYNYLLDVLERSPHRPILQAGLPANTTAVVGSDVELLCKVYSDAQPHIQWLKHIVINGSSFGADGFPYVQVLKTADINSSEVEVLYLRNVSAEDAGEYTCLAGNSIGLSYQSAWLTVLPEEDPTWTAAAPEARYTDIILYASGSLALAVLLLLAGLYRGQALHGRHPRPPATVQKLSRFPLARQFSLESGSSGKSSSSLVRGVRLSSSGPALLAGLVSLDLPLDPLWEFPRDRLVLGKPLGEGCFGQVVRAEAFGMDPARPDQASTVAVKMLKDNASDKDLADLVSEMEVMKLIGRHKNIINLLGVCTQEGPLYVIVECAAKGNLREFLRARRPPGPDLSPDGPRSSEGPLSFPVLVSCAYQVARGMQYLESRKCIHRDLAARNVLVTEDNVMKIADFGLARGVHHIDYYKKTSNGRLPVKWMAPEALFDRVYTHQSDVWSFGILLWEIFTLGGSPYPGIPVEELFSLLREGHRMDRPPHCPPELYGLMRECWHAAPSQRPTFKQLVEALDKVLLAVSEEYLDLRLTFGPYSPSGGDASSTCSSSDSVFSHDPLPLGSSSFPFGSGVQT
# Description: (§1) In order to assess the activity of chemical compounds against the relevant kinase of interest, the Caliper LifeSciences electrophoretic mobility shift technology platform is utilized. Fluorescently labeled substrate peptide is incubated in the presence dosed levels of compounds, a set concentration of kinase and of ATP, so that a reflective proportion of the peptide is phosphorylated. At the end of the reaction, the mix of phosphorylated (product) and non-phosphorylated (substrate) peptides are passed through the microfluidic system of the Caliper LabChip® EZ Reader II, under an applied potential difference. The presence of the phosphate group on the product peptide provides a difference in mass and charge between the product peptide and the substrate peptide, resulting in a separation of the substrate and product pools in the sample. As the pools pass the LEDS within the instrument, these pools are detected and resolved as separate peaks. The ratio between these peaks therefore reflects the activity of the chemical matter at that concentration in that well, under those conditions.
# (§2) The reaction was stopped by the addition of 70 ul of Stop buffer (100 mM HEPES pH 7.5, 0.015% Brij 35, 35 mM EDTA and 0.2% of Coating Reagent 3 (Caliper Lifesciences)). The plate was then read on a Caliper LabChip® EZ Reader II (protocol settings: —1.9 psi, upstream voltage—700, downstream voltage—3000, post sample sip 35 s).
# [2] = molecular target: T2, wild type FGFR-1 (Homo sapiens, UniProt P11362); assay: FGFR-1 wild type assay at Km (Caliper mobility shift); format: biochemical; details: 400 uM ATP, 25 C, 90 minutes; read-out: FGFR1 IC50
# T2 construct: purchased Carna Biosciences, Inc
# T2 sequence (P11362 22-822): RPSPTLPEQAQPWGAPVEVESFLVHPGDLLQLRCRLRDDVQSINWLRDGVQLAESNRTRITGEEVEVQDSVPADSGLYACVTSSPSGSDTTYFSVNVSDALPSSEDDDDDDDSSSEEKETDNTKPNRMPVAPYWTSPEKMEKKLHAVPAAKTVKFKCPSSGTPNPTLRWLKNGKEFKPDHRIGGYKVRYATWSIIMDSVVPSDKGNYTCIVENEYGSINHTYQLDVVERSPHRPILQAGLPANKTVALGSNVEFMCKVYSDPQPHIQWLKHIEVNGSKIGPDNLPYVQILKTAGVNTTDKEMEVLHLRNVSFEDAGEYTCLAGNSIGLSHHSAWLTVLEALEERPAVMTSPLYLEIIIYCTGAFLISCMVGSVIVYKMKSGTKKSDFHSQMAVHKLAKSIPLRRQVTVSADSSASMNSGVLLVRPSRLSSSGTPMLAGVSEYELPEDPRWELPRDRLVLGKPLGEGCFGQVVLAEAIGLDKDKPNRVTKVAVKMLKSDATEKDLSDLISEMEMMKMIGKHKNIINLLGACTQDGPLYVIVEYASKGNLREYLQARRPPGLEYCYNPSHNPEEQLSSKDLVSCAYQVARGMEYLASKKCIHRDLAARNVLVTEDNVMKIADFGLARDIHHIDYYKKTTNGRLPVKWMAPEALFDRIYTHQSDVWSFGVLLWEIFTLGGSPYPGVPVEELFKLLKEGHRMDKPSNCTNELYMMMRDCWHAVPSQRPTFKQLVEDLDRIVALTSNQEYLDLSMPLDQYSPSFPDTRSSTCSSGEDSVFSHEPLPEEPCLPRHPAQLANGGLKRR
# Description: as §1
# as §2, with “EZReader 2” for “LabChip® EZ Reader II”
Ratio FGFR1/FGFR4 [1],IC50 [1] [nM],IC50 [2] [nM],SMILES
D (the ratio is ≧50 and <100),100 to 1000,,C=CC(=O)Nc1cccc(C)c1Nc1ncc2cc(-c3cc(C(N)=O)ccc3F)ccc2n1 [COMPOUND 9]
E (the ratio is ≧10 and <50),,,"C=CC(=O)Nc1cccc(C)c1Nc1ncc2cc(-c3cc(OC)cc(OC)c3)cnc2n1 [COMPOUND 10, N-(2-((6-(3,5-dimethoxyphenyl)pyrido[2,3-d]pyrimidin-2-yl)amino)-3-methylphenyl)acrylamide]"
B (the ratio is ≧200 and <500),10 to 100,,C=CC(=O)Nc1cccc(Cl)c1Nc1ncc2cc(-c3cc(C(N)=O)ccc3C)ccc2n1 [COMPOUND 17]
B (the ratio is ≧200 and <500),10 to 100,,C=CC(=O)Nc1cccc(C)c1Nc1ncc2cc(-c3c(Cl)cccc3Cl)c(=O)n(C)c2n1 [COMPOUND 22]
D (the ratio is ≧50 and <100),100 to 1000,,C=CC(=O)Nc1cccc(C)c1Oc1ncc2cc(-c3c(Cl)c(OC)cc(OC)c3Cl)ccc2n1 [COMPOUND 25A]
,10 to 100,,C=CC(=O)Nc1ccc(F)c(C)c1Nc1ncc2cc(-c3c(Cl)c(OC)cc(OC)c3Cl)ccc2n1 [COMPOUND 33]
E (the ratio is ≧10 and <50),,,C=CC(=O)Nc1cccc(C)c1Nc1cc2c(cn1)cc(-c1c(Cl)c(OC)cc(OC)c1Cl)c(=O)n2C [COMPOUND 39]
,,100 to 1000,C=CC(=O)Nc1cccc(C)c1Nc1ncc2cc(-c3c(Cl)c(OC)cc(OC)c3Cl)cc(OC)c2n1 [COMPOUND 41]
E (the ratio is ≧10 and <50),100 to 1000,,C=CC(=O)Nc1ccccc1Nc1cc2nc(NC(=O)NC(C)(C)C)c(-c3cc(OC)cc(OC)c3)cc2cn1 [COMPOUND 44]
,10 to 100,,C=CC(=O)Nc1cc(Cl)cc(C)c1Nc1ncc2cc(-c3c(Cl)c(OC)cc(OC)c3Cl)ccc2n1 [COMPOUND 49]

# Further lines, the molecule ahead of its results:
SMILES,Ratio FGFR1/FGFR4 [1],IC50 [1] [nM],IC50 [2] [nM]
C=CC(=O)N(C)c1ncc2cc(-c3cc(OC)cc(OC)c3)ccc2n1 [COMPOUND 1],C (the ratio is ≧100 and <200),,
C=CC(=O)N(C)c1ncc2cc(-c3c(Cl)cccc3Cl)ccc2n1 [COMPOUND 2],D (the ratio is ≧50 and <100),100 to 1000,
C=CC(=O)N(C)c1ncc2c(n1)N(C)C(=O)N(c1cc(OC)cc(OC)c1)C2 [COMPOUND 5],,10 to 100,
"C=CC(=O)Nc1cccc(C)c1Nc1ncc(C#Cc2cc(OC)cc(OC)c2)cn1 [COMPOUND 6, N-(2-((5-((3,5-dimethoxyphenyl)ethynyl)pyrimidin-2-yl)amino)-3-methylphenyl)acrylamide]",,100 to 1000,
"C=CC(=O)Nc1ccccc1Nc1nccc(N2CCCC(NS(=O)(=O)CCC)C2)n1 (stereo not shown) [COMPOUND 11, N-(2-((4-(3-(propylsulfonamido)piperidin-1-yl)pyrimidin-2-yl)amino)phenyl)acrylamide]",,100 to 1000,
C=CC(=O)Nc1cccc(C)c1Nc1ncc2cc(-c3c(Cl)cccc3Cl)ccc2n1 [COMPOUND 13],D (the ratio is ≧50 and <100),10 to 100,
C=CC(=O)Nc1ccccc1Nc1cc2c(cn1)cc(-c1cc(OC)cc(OC)c1)c(=O)n2C [COMPOUND 15],B (the ratio is ≧200 and <500),10 to 100,
C=CC(=O)Nc1cccc(C)c1Nc1ncc2cc(-c3c(Cl)ccc(OC)c3F)ccc2n1 [COMPOUND 17A],E (the ratio is ≧10 and <50),10 to 100,
"C#CC(=O)NCc1cccn2c(-c3cc(NC(=O)NCC(F)(F)F)cc(OC(C)C)c3)cnc12 [COMPOUND 20, N-((3-(3-isopropoxy-5-(3-(2,2,2-trifluoroethyl)ureido)phenyl)imidazo[1,2-a]pyridin-8-yl)methyl)propiolamide]",,10 to 100,
"C=CC(=O)Nc1ccccc1-c1ccn2c(-c3cccc(NC(=O)NCC(F)(F)F)c3)cnc2c1 [COMPOUND 21, N-(2-(3-(3-(3-(2,2,2-trifluoroethyl)ureido)phenyl)imidazo[1,2-a]pyridin-7-yl)phenyl)acrylamide]",B (the ratio is ≧200 and <500),100 to 1000,
"C=CC(=O)Nc1cccc(C)c1Nc1ncc(C#Cc2c(Cl)c(OC)cc(OC)c2Cl)cn1 [COMPOUND 24, N-(2-((5-((2,6-dichloro-3,5-dimethoxyphenyl)ethynyl)pyrimidin-2-yl)amino)-3-methylphenyl)acrylamide]",,10 to 100,
"C=CC(=O)Nc1cccc(C)c1Nc1ncc2cc(-c3c(Cl)c(OC)cc(OC)c3Cl)cnc2n1 [COMPOUND 26, N-(2-((6-(2,6-dichloro-3,5-dimethoxyphenyl)pyrido[2,3-d]pyrimidin-2-yl)amino)-3-methylphenyl)acrylamide]",,,100 to 1000
C=C(C)C(=O)Nc1cccc(C)c1Nc1ncc2cc(-c3c(Cl)c(OC)cc(OC)c3Cl)ccc2n1 [COMPOUND 29],,,100 to 1000
"C=CC(=O)Nc1cccc(OC)c1Nc1ncc2cc(-c3c(Cl)c(OC)cc(OC)c3Cl)ccc2n1 [COMPOUND 30, N-(2-((6-(2,6-dichloro-3,5-dimethoxyphenyl)quinazolin-2-yl)amino)-3-methoxyphenyl)acrylamide]",,,100 to 1000
C=CC(=O)Nc1cc(F)cc(C)c1Nc1ncc2cc(-c3c(Cl)c(OC)cc(OC)c3Cl)ccc2n1 [COMPOUND 32],C (the ratio is ≧100 and <200),,
"C=CC(=O)Nc1cccc(C)c1Nc1ncc2cc(-c3c(Cl)c(OC)cc(OC)c3Cl)cc(F)c2n1 [COMPOUND 34, N-(2-((6-(2,6-dichloro-3,5-dimethoxyphenyl)-8-fluoroquinazolin-2-yl)amino)-3-methylphenyl)acrylamide]",,,100 to 1000
C=CC(=O)Nc1cc(F)cc(F)c1Nc1ncc2cc(-c3c(Cl)c(OC)cc(OC)c3Cl)ccc2n1 [COMPOUND 36],B (the ratio is ≧200 and <500),100 to 1000,
"C=CC(=O)Nc1ccccc1Nc1ncc2cc(-c3c(Cl)c(OC)cc(OC)c3Cl)c(=O)n(C)c2c1C [COMPOUND 40, N-(2-((3-(2,6-dichloro-3,5-dimethoxyphenyl)-1,8-dimethyl-2-oxo-1,2-dihydro-1,6-naphthyridin-7-yl)amino)phenyl)acrylamide]",,100 to 1000,
"C=CC(=O)Nc1cccc(C)c1Nc1ncc2cc(-c3c(Cl)c(OC)cc(OC)c3Cl)c(OC)cc2n1 [COMPOUND 42, N-(2-((6-(2,6-dichloro-3,5-dimethoxyphenyl)-7-methoxyquinazolin-2-yl)amino)-3-methylphenyl)acrylamide]",,,10 to 100
"C=CC(=O)Nc1cccc(C)c1Nc1ncc2nc(-c3c(Cl)c(OC)cc(OC)c3Cl)c(=O)n(C)c2n1 [COMPOUND 45, N-(2-((6-(2,6-dichloro-3,5-dimethoxyphenyl)-8-methyl-7-oxo-7,8-dihydropteridin-2-yl)amino)-3-methylphenyl)acrylamide]",E (the ratio is ≧10 and <50),,
"C=CC(=O)Nc1ccccc1Nc1ncc(Cl)c(N2CCN(C(=O)Nc3cccc(C(F)(F)F)c3)CC2)n1 [COMPOUND 50, 4-(2-((2-acrylamidophenyl)amino)-5-chloropyrimidin-4-yl)-N-(3-(trifluoromethyl)phenyl)piperazine-1-carboxamide]",,100 to 1000,
"C=CC(=O)Nc1cc(C(=O)NC2CCN(C)CC2)ccc1Nc1ncc(C)c(N2CCN(C(=O)Nc3ccc(C#N)cc3)CC2)n1 [COMPOUND 54, 4-(2-((2-acrylamido-4-((1-methylpiperidin-4-yl)carbamoyl)phenyl)amino)-5-methylpyrimidin-4-yl)-N-(4-cyanophenyl)piperazine-1-carboxamide]",,10 to 100,
